Results on one compound are retold here after US20250034168A1, “NITROGEN-CONTAINING HETEROCYCLIC DERIVATIVE PARP INHIBITOR AND USE THEREOF” (XIZANG HAISCO PHARMACEUTICAL CO., LTD., priority 2021, published 2025).

The target in one series is PARP-1 enzyme (Homo sapiens (Human), UniProt P09874). As to the kind of experiment: PARP-1 enzyme activity test. The class given is biochemical. The protocol:
PARP-1 chemical […] detection kit was purchased from BPS Bioscience. The histone solution in the kit was diluted 5× with 1×PBS, and 25 μL of the diluted histone solution was added to a microwell plate and incubated overnight at 4° C. After the incubation, the plate was washed three times with PBST (0.05% Tween-20). 100 μL of the blocking solution was added to the microwell plate and incubated at 25° C. for 90 minutes. After the incubation, the plate was washed three times with PBST. 2.5 μL of compounds at different concentrations diluted in test buffer and 12.5 μL of substrate mixed solution (1.25 μL 10×PARP test buffer; 1.25 μL 10×PARP test mixed solution; 2.5 μL Activated DNA, 7.5 μL double-distilled water) were added to the microwell plate. The PARP-1 enzyme was diluted to 2 ng/μL, 10 μL of the diluent was added to the microwell plate, and the reaction system was incubated at 25° C. for 60 minutes.
After the incubation, the plate was washed three times with PBST. Streptavidin-HRP was diluted 50× with a blocking solution, and 25 μL of the diluent was added to the microwell plate and incubated at 25° C. for 30 minutes. After the incubation, the plate was washed three times with PBST. ELISA ECL substrate A and substrate B were mixed at a ratio of 1:1 (v/v), 50 μL of the mixture was added to the microwell plate, and the chemiluminescence value was read.
The inhibition rate was calculated according to formula 1, where RLUsample was the readout of the compound well, RLUmax was the readout of the solvent control well, and RLUmin was the readout of the control well without the PARP-1 enzyme. Curve fitting was performed by four parameters (log(inhibitor) vs. response—Variable slope) using GraphPad Prism software, and the IC50 value was calculated.

Series [1] in a line: Pharmacokinetic test in mice. The class given is in vivo, ICR mice. The method, then:
• 5.2.1 Experimental animals: male ICR mice, 20-25 g, 18 mice/compound. purchased from Chengdu Ddossy Experimental Animals Co., Ltd. • 5.2.2 Experimental design: on the day of the test, 18 ICR mice were randomly grouped according to their body weights. the animals were fasted with water available for 12 to 14 h one day before the administration, and were fed 4 h after the administration.
Before and after the administration, 0.06 mL of blood was taken from the orbit of the animals under isoflurane anesthesia and placed in an EDTAK2 centrifuge tube. The blood was centrifuged at 5000 rpm and 4° C. for 10 min to collect plasma. The blood collection time points for the intravenous group and intragastric administration group were: 0 min, 5 min, 15 min, 30 min, 1 h, 2 h, 4 h, 6 h, 8 h, and 24 h. Before analysis and detection, all samples were stored at −80° C., and a quantitative analysis of samples was performed using LC-MS/MS.

A short description of series [2]: Pharmacokinetic test in rats. The class given is in vivo, SD rats. The method, then: • 5.1.1 Experimental animals: male SD rats, about 220 g, 6-8 weeks old, 6 rats/compound, purchased from Chengdu Ddossy Experimental Animals Co., Ltd. • 5.1.2 Experimental design: on the day of the test, 6 SD rats were randomly grouped according to their body weight; the animals were fasted with water available for 12 to 14 h one day before the administration, and were fed 4 h after the administration.
Before and after the administration, 0.15 ml of blood was taken from the orbit of the animals under isoflurane anesthesia and placed in an EDTAK2 centrifuge tube. The blood was centrifuged at 5000 rpm and 4° C. for 10 min to collect plasma. The blood collection time points for the intravenous administration group and intragastric administration group were: 0, 5 min, 15 min, 30 min, 1 h, 2 h, 4 h, 6 h, 8 h, and 24 h. Before analysis and detection, all samples were stored at −80° C., and a quantitative analysis of samples was performed using LC-MS/MS.

Where [3] appears, read: male, ICR, iv, mouse plasma, i.v. 2.5 mg/kg.
Setting [4] is: male, Sprague-Dawley, iv, rat plasma, i.v. 2.5 mg/kg.

Sequence of PARP-1 enzyme (P09874 whole entry): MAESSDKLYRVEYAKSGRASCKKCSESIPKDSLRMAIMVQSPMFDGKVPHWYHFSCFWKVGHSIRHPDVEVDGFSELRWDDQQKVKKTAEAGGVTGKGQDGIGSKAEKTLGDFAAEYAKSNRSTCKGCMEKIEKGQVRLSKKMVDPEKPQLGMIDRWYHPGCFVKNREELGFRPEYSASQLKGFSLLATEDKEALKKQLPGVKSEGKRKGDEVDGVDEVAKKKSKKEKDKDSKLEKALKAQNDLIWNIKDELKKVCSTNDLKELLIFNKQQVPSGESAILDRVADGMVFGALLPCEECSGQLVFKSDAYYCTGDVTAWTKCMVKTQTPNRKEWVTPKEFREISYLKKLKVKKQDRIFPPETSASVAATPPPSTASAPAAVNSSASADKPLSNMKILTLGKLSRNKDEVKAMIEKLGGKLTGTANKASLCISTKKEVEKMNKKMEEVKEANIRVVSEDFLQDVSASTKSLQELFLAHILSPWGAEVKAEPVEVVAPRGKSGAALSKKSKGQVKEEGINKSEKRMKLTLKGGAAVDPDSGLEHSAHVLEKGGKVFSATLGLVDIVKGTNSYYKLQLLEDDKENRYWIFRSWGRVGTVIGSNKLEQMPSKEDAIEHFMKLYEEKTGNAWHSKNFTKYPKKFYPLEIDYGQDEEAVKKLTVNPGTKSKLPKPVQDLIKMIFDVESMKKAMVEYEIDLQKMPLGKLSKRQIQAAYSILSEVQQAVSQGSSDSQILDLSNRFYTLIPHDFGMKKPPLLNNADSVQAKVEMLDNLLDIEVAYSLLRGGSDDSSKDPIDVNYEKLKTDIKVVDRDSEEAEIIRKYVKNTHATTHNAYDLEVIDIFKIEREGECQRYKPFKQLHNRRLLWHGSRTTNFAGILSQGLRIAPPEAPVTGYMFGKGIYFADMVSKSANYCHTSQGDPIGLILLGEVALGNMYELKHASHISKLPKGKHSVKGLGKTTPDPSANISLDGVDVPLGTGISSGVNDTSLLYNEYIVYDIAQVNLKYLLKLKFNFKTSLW

By IC50 is commonly meant the concentration needed to halve the response being measured. Read a high IC50 as weaker potency. In general, AUC(0-t) refers to exposure summed from dosing to a finite time, without extrapolation to infinity. A higher AUC(0-t) goes with high exposure. As a reminder, the clearance is the volume of plasma or blood freed of the substance per unit of time. Read a low clearance as a low capacity for elimination. On to `CCc1cc2ncc(CN3CC=C(c4ccc(C(=O)NC)nc4)CC3)cc2[nH]c1=O` [Compound 14, 1′-((7-ethyl-6-oxo-5,6-dihydro-1,5-naphthyridin-3-yl)methyl)-N-methyl-1′,2′,3′,6′-tetrahydro-[3,4′-bipyridine]-6-carboxamide], for which the IC50 against PARP-1 enzyme is 0.59 nM. The area under the curve AUC(0-t) in series [1] (setting [3]) came out at 220 µg·h/mL; in series [1] (male, ICR, po, mouse plasma, i.g. 10 mg/kg), 829 µg·h/mL; in series [2] (setting [4]), 84.2 µg·h/mL; in series [2] (male, Sprague-Dawley, po, rat plasma, i.g. 10 mg/kg) it was 248 µg·h/mL. Further, the clearance in series [1] (setting [3]) was determined as 0.164 mL/min/kg; in series [2] (setting [4]) it was 0.494 mL/min/kg. In addition, the Vd in series [1] (male, ICR, iv, mouse plasma, i.v. 2.5 mg/kg, read-out: Vdss) came out at 0.112 L/kg; in series [2] (male, Sprague-Dawley, iv, rat plasma, i.v. 2.5 mg/kg, read-out: Vdss), 0.164 L/kg. Moreover, the F in series [1] (mouse, i.g. 10 mg/kg) worked out at 94.3%; in series [2] (rat, i.g. 10 mg/kg) it was 73.8%.
